The target of test [1] is T1, Cbl-b (Homo sapiens, UniProt Q13191). The experiment in a line: Cbl-b activity assay (Cbl-b inhibition assay), TR-FRET of Cbl-b interaction with UbcH5B-Ub. It is filed as biochemical. The settings on record: for pIC50: assay buffer with 100 mM NaCl, 60 nM Src kinase, read-out: Cbl-b activity IC50; for IC50: * assay buffer containing 50 mM NaCl instead of 100 mM NaCl and 30 nM Src kinase instead of 60 nM, read-out: Cbl-b activity IC50 (μM)*. In a few lines: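 TR-FRET readout of Cbl-b binding to Bodipy-fluorescein N-terminally labeled Ub conjugated to UbcH5B C85K, measured with compound present. After compound incubation, 60 nM Src kinase with 1 mM ATP and 5 mM MgCl2 (final) was added for 1.5 h, then a further 1 h incubation; asterisked values used 50 mM NaCl buffer and 30 nM Src.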
T1 sequence (Q13191 36-427): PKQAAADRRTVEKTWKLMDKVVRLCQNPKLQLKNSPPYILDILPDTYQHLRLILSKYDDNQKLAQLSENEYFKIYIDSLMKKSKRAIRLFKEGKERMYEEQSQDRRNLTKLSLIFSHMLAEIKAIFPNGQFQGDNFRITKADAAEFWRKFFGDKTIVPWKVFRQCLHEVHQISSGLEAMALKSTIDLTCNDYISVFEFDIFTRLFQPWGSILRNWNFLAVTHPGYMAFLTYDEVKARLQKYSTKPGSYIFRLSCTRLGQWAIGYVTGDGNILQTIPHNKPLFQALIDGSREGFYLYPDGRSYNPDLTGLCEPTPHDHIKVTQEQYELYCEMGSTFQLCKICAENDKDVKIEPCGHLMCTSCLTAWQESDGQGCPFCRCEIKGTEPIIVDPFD

In test [2] the target is T1, Cbl-b. Kind of test: Cbl-b inhibition assay (Cbl-b activity assay, FRET, Biological Example 1; 100 mM NaCl, 60 nM Src kinase). It is filed as biochemical. Conditions: upper bound stated in text lists; read-out: IC50 values in the Cbl-b inhibition assay of Biological Example 1. The essentials: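 Here, the E2 UbcH5B, irreversibly linked to Bodipy-fluorescein ubiquitin, binds Cbl-b once Src kinase phosphorylates it; Cbl-b carries an N-terminal biotinylated Avi-tag captured by streptavidin-terbium. An absent FRET signal indicates inhibition.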

Test [3] has as its target Cbl-b (residues 36-427) (Homo sapiens, UniProt Q13191). The experiment in a line: Cbl-b binding assay (SPR, Biacore T200). The settings on record: 20° C., 1:1 binding model. As for the experimental part: SPR data was collected on a Biacore T200 (GE Healthcare) using a NeutrAvidin (Invitrogen) capture surface that was generated on a polycarboxylate hydrogel sensor chip of medium charge density (XanTec Bioanalytics GmbH) at 20° C. The surface was prepared using 20 mM HEPES, pH 7.5, 100 mM NaCl, 0.5 mM TCEP, 0.01% Triton X-100 as the immobilization buffer. Neutravidin was coupled to the sensor chip through EDC/NHS amine coupling. All steps were performed using a flow rate of 10 μl/min. First, the chip was preconditioned with a 3-min injection of 1 M NaCl, 0.1 M Borate followed by a 10-min equilibration in immobilization buffer. The surface was activated by a 5-min injection of 100 mM EDC/50 mM NHS. Next, 250 μg/mL NeutrAvidin buffered in 10 mM sodium acetate buffer, pH 5.0 was injected over the surface for 2 min. The surface was deactivated with 1 M Tris, pH 8.5 for 7 min then re-equilibrated in immobilization buffer for 7 min. […] Flow cell 1 served as a reference surface and was prepared without protein. All binding measurements were made in 20 mM HEPES, pH 7.5, 100 mM NaCl, 0.5 mM TCEP, 0.01% Triton X-100, 2% DMSO (referred as assay buffer) at 20° C. Compounds, prepared in assay buffer, were diluted from atop concentration of either 100 μM or 50 μM using either a 2- or 3-fold dilution scheme containing 8 or 10 points. Samples were injected for 50 s at 50 μl/min. Dissociation time varied from 90-180 s, depending on anticipated potency. The surface was regenerated by injection of 0.3 M NaCl, prepared in assay buffer for 20 s at 10 μl/min. Positive and negative control samples were run between each compound to monitor surface integrity.
Column marked with an asterisk (*) were tested as described above with assay buffer containing 50 mM NaCl instead of 100 mM NaCl and 30 nM Src kinase instead of 60 nM Src kinase. The resulting data for the Cbl-b binding assay was solvent corrected and double referenced prior to analysis. All data were globally fit to a steady-state affinity and kinetic binding model where applicable). Fit parameters were derived from a 1:1 binding model using the Biacore T200 Evaluation Software V2.0 (GE Healthcare) (Table 2).

pIC50, pKd: −log10 of the molar value.

Cbl-b (residues 36-427), sequence (Q13191 36-427): as above

The pIC50 is −log10 of the IC50, conventionally taken in molar units. The pKd is the Kd on a negative log10 scale, so that one unit is a factor of ten. Low readings indicate a large Kd, high ones a small Kd. With `C[C@H](Sc1nncn1C)c1cccc(NC(=O)c2cc(C(F)(F)F)cc(Cl)n2)c1` [Compound 66, (S)-6-chloro-N-(3-(1-((4-methyl-4H-1,2,4-triazol-3-yl)thio)ethyl)phenyl)-4-(trifluoromethyl)picolinamide], the pIC50 in test [1] is 5.52 to 6.00; in test [2] it was at least 5.00. Moreover, the pKd in test [3] is 5.00 to 5.52.
For `COc1cc(C(F)(F)F)cc(C(=O)Nc2cccc([C@H](C)Sc3nncn3C)c2)n1` [Compound 73, (S)-6-methoxy-N-(3-(1-((4-methyl-4H-1,2,4-triazol-3-yl)thio)ethyl)phenyl)-4-(trifluoromethyl)picolinamide], the results for the pIC50 in test [1] and in test [2] were 5.52 to 6.00 and at least 5.00, respectively. In test [3], this molecule showed a pKd of 5.00 to 5.52.
In the case of `C[C@H](Sc1nncn1C)c1cccc(NC(=O)c2nc(C(F)(F)F)cs2)c1` [Compound 74, N-[3-[(1 S)-1-[(4-methyl-1,2,4-triazol-3-yl)sulfanyl]ethyl]phenyl]-4-(trifluoromethyl)thiazole-2-carboxamide], the negative logarithm of the IC50 (pIC50) is 6.00 to 6.52 in test [1] and at least 6.00 in test [2]. Also, in test [3], the pKd is 5.52 to 6.00.
On the same counts, the results for `C[C@H](Sc1nncn1C)c1cccc(NC(=O)c2cccc(OC(F)(F)F)c2)c1` [Compound 79, (S)-N-(3-(1-((4-methyl-4H-1,2,4-triazol-3-yl)thio)ethyl)phenyl)-3-(trifluoromethoxy)benzamide] are 5.00 to 5.52, at least 5.00 and 5.00 to 5.52.
On to `Cc1cncc(C(=O)Nc2cccc([C@H](C)Sc3nncn3C)c2)n1` [Compound 82, (S)-6-methyl-N-(3-(1-((4-methyl-4H-1,2,4-triazol-3-yl)thio)ethyl)phenyl)pyrazine-2-carboxamide], for which the pIC50 in test [1] is 5.52 to 6.00; in test [2], at least 5.00. This molecule also gave a pKd in test [3] of 5.00 to 5.52.
For `C[C@H](Sc1nncn1C)c1cccc(NC(=O)c2cc(C(F)(F)F)c3ccccc3n2)c1` [Compound 83, (S)-N-(3-(1-((4-methyl-4H-1,2,4-triazol-3-yl)thio)ethyl)phenyl)-4-(trifluoromethyl)quinoline-2-carboxamide], the pIC50 in test [1] was 5.52 to 6.00; in test [2], at least 5.00. Further, the pKd in test [3] is 5.00 to 5.52.
On to `C[C@H](Sc1nncn1C)c1cccc(NC(=O)c2cc(NS(=O)(=O)CCO)ccn2)c1` [Compound 86, 4-(2-hydroxyethylsulfonylamino)-N-[3-[(1S)-1-[(4-methyl-1,2,4-triazol-3-yl)sulfanyl]ethyl]phenyl]pyridine-2-carboxamide], for which the pIC50 was 5.00 to 5.52 in test [1] and at least 5.00 in test [2]. For the same molecule, the pKd in test [3] was below 5.00.
As for `C[C@H](Sc1nncn1C)c1cccc(NC(=O)c2cccc(CF)n2)c1` [Compound 87, 6-(fluoromethyl)-N-[3-[(1S)-1-[(4-methyl-1,2,4-triazol-3-yl)sulfanyl]ethyl]phenyl]pyridine-2-carboxamide], the pIC50 was 5.52 to 6.00 in test [1] and at least 5.00 in test [2]. The molecule further gave a pKd in test [3] of 5.52 to 6.00.
Consider `C[C@H](Sc1nncn1C)c1cccc(NC(=O)c2cccc3scnc23)c1` [Compound 88, N-[3-[(1 S)-1-[(4-methyl-1,2,4-triazol-3-yl)sulfanyl]ethyl]phenyl]-1,3-benzothiazole-4-carboxamide], for which the pIC50 in test [1] is 5.52 to 6.00; in test [2], at least 5.00. The same molecule gave a pKd in test [3] of 5.00 to 5.52.
On to `CCOc1cccc(C(=O)Nc2cccc([C@H](C)Sc3nncn3C)c2)n1` [Compound 90, 6-Ethoxy-N-[3-[(1S)-1-[(4-methyl-1,2,4-triazol-3-yl)sulfanyl]ethyl]phenyl]pyridine-2-carboxamide], for which the pIC50 is 5.52 to 6.00 in test [1] and at least 5.00 in test [2]. This molecule gave a pKd in test [3] of 5.00 to 5.52.
On the same counts, the results for `CC(Sc1nncn1C)c1ccc(F)c(NC(=O)c2cccc(C(F)(F)F)n2)c1` (stereo not drawn) [Compound 95, N-(2-fluoro-5-(1-((4-methyl-4H-1,2,4-triazol-3-yl)thio)ethyl)phenyl)-6-(trifluoromethyl)picolinamide] are 5.52 to 6.00, at least 5.00 and 5.52 to 6.00.
Regarding `C[C@@H](Sc1nncn1C)c1ccc(F)c(NC(=O)c2cccc(C(F)(F)F)n2)c1` [Compound 95b, (R)-N-(2-fluoro-5-(1-((4-methyl-4H-1,2,4-triazol-3-yl)thio)ethyl)phenyl)-6-(trifluoromethyl)picolinamide], the pIC50 was 5.00 to 5.52 in test [1] and at least 5.00 in test [2]. The same molecule had a pKd in test [3] below 5.00.
On the same counts, the results for `C[C@H](Sc1nncn1C)c1ccc(F)c(NC(=O)c2ccc3ccccc3n2)c1` [Compound 96a, (S)-N-(2-fluoro-5-(1-((4-methyl-4H-1,2,4-triazol-3-yl)thio)ethyl)phenyl)quinoline-2-carboxamide] are 5.52 to 6.00, at least 5.00 and 5.52 to 6.00.
One may read the IC50 as the concentration that inhibits the measured activity by half. Consider `COc1ccc(C(C)Sc2nncn2C)cc1NC(=O)c1ccc2ccccc2n1` (stereo not drawn) [Compound 97, N-(2-methoxy-5-(1-((4-methyl-4H-1,2,4-triazol-3-yl)thio)ethyl)phenyl)quinoline-2-carboxamide], for which the IC50 in test [1] was 1 to 3 µM. For the same molecule, the figures for the pIC50 in test [1] and in test [2] were 5.52 to 6.00 and at least 5.00, respectively. Besides, in test [3], the pKd was 5.00 to 5.52.
For `C[C@H](Sc1nncn1C1CC1)c1cccc(NC(=O)c2cc3ccccc3cn2)c1` [Compound 99, (S)-N-(3-(1-((4-cyclopropyl-4H-1,2,4-triazol-3-yl)thio)ethyl)phenyl)isoquinoline-3-carboxamide], in test [1], the IC50 is 3 to 10 µM and the pIC50 was 6.00 to 6.52. Moreover, the pIC50 in test [2] is at least 6.00. The molecule also showed a pKd in test [3] of 5.00 to 5.52.
On the same counts, the results for `C[C@H](Sc1nncn1C)c1ccnc(NC(=O)c2cccc(C(F)(F)F)n2)c1` [Compound 102b, (S)-N-(4-(1-((4-methyl-4H-1,2,4-triazol-3-yl)thio)ethyl)pyridin-2-yl)-6-(trifluoromethyl)picolinamide] are 1 to 3 µM, 5.52 to 6.00, at least 5.00 and 5.52 to 6.00.
Consider `C[C@H](Sc1nncn1C)c1ccnc(NC(=O)c2ccc3cccc(F)c3n2)c1` [Compound 107, (S)-8-fluoro-N-(4-(1-((4-methyl-4H-1,2,4-triazol-3-yl)thio)ethyl)pyridin-2-yl)quinoline-2-carboxamide], for which the values for the pIC50 in test [1] and in test [2] were 5.52 to 6.00 and at least 5.00, respectively. The molecule further showed a pKd in test [3] of 5.00 to 5.52.
As for `C[C@H](Sc1nncn1C)c1ccnc(NC(=O)c2ccc3c(n2)CCCC3)c1` [Compound 108, (S)-N-(4-(1-((4-methyl-4H-1,2,4-triazol-3-yl)thio)ethyl)pyridin-2-yl)-5,6,7,8-tetrahydroquinoline-2-carboxamide], the pIC50 in test [1] is 5.52 to 6.00; in test [2], at least 5.00. This molecule had a pKd in test [3] of 5.00 to 5.52.
On the same counts, the results for `C[C@H](Sc1nncn1C)c1ccnc(NC(=O)c2cc3c(cn2)CCCC3)c1` [Compound 109, (S)-N-(4-(1-((4-methyl-4H-1,2,4-triazol-3-yl)thio)ethyl)pyridin-2-yl)-5,6,7,8-tetrahydroisoquinoline-3-carboxamide] are 5.00 to 5.52, at least 5.00 and 5.00 to 5.52.
For the molecule `C[C@H](Sc1nncn1C)c1ccnc(NC(=O)c2cccc(C(C)(F)F)n2)c1` [Compound 110, (S)-6-(1,1-difluoroethyl)-V-(4-(1-((4-methyl-4H-1,2,4-triazol-3-yl)thio)ethyl)pyridin-2-yl)picolinamide], the values for the pIC50 in test [1] and in test [2] were 6.00 to 6.52 and at least 6.00, respectively. In addition, in test [3], the pKd is 5.00 to 5.52.

For the origin of these results see patent US20220324835A1 (Nurix Therapeutics, Inc., priority 2018, published 2022).
